One assay has as its target T1, PCNA (Homo sapiens, UniProt P12004).
T1 construct: endogenous PCNA was knocked down with transfection of PCNA-specific siRNA; endogenous in cells; host or cells: PC-3
The assay can be described thus: Association of PCNA with chromatin, PC-3 (NP-E/NP-R western blot). Format: cell-based. How it is done:
The encircling of DNA and association with chromatin is required for PCNA to execute its function. Therefore, the effect of PCNA-I1 on the association of PCNA with chromatin was investigated. PC-3 cells were treated for various times with 0.5 μM of PCNA-I1 and lysed in buffer A (10 mM Tris-HCl, pH 7.4, 2.5 mM MgCl2, 0.5% NP-40, 1 mM DTT, 1 mM PMSF, and protease inhibitor cocktail). Samples were pelleted by centrifuge (1500×g, 2 min, 4° C.), and supernatant collected as NP-40-extractable ([…]) fraction. The pellet was washed in NP-40 buffer B (10 mM Tris-HCl, pH 7.4, 150 mM NaCl, 1 mM PMSF, and a protease inhibitor cocktail) to release the free form of PCNA. The cells were resuspended and digested in buffer C (10 mM Tris-HCl, pH 7.4, 10 mM NaCl, 5 mM MgCl2, 0.2 mM PMSF, and protease inhibitors) with 200 units/[…] of DNase I for 30 min at 37° C. After centrifugation at 13,000×g for 5 min at 4° C., the supernatant was collected and fractions were analyzed by western blotting. MCF-7, HeLa, and LNCaP cells were also subjected to treatment with 0.5 μM of PCNA-I1 and subjected to western blotting as previously discussed.
A general note: A western blot detects proteins with antibodies after separation by electrophoresis.

In assay [1] the test system is PC-3 cells. In words: Alamar blue assay, PC-3 cells as positive control. Format: cell-based, Human. The note with it: FIG. 2(B). How it is done: The effects of PCNA-I1 on growth of tumor cells versus primary cells was also investigated. Specifically, the effects of PCNA-1I on the growth of primary cells was investigated using primary culture of mouse lymphocytes. An Alamar blue assay was performed with PC-3 cells as a positive control. Freshly prepared mouse spleen lymphocytes were stimulated for 72 H with 2 μg/mL of concanavalin A. During the last 24 H, 20 μL/well of alamar blue was added. The fluorescence intensity was measured at 530/580 (excitation/emission).
A general note: Alamar Blue is a resazurin reagent that responds to reducing activity.

For assay [2], the system named is primary human prostate epithelial cells. In words: Growth inhibition, prostate epithelial cells. Format: cell-based. To be noted: Epithelial cell, normal cells. How it is done: Growth inhibitory effects of PCNA-I1 and PCNA-I2 were assessed in human cancer cell lines, mouse cancer cell lines, immortalized mouse cell lines, and human primary cell lines. Specifically, growth inhibitory effects of PCNA-I1 and PCNA-I2 were assessed using MTT staining in the following cells lines: 1) human cancer cell lines including LNCaP (androgen receptor […]), 22Rv1, DU-145, LAPC-4, and PC-3 (androgen receptor […]) prostate cancer cells; MCF-7 and T47D breast cancer cells; A375 and MDA-MB435 melanoma cells; 2) mouse cancer cell lines including TRAMP-C2RE3 prostate cancer cells, B16 and K1735 melanoma cells, UV2237 fibrosarcoma cells, and CT-26 colon cancer cells; 3) immortalized mouse lung cell lines and mouse endothelial cell lines; and 4) primary human cell lines including umbilical endothelial cells (HUVEC, PromoCell, Heidelberg, Germany), primary bone marrow mesenchymal stem cells (HuMSC, PromoCell), primary human mammary epithelial cells (HuBrEC, Lonza, Walkersville, Md.), primary human prostate epithelial cells (HuPrEC, Lonza), and primary mouse spleen lymphocytes (isolated in this laboratory), and primary mouse bone marrow stromal cells (isolated in this laboratory). […]
IC50 values were derived from growth inhibition curves. […] Inhibition of cell growth was calculated using the formula: growth inhibition (%)=(1−A570 of treated/A570 of control)×100. […]

In assay [3] the test system is CT26R100 murine colon cancer cell line. The assay can be described thus: Growth inhibition by MTT staining, CT26R100. Format: cell-based, Mouse.
Assay [4] deals with PC-3 cells. The assay can be described thus: MTT assay, PCNA-I1 and cisplatin alone or combined, PC-3. Format: cell-based, Human. To be noted: Homo sapiens. The method, then: LNCaP or PC-3 cells were treated with a variety of concentrations of PCNA-I1 (0.1-10 μM) or cisplatin (0.1-10 μM) alone, or with a variety of concentrations of a combination of PCNA-I1 (0.1-10 μM) and cisplatin (0.1-10 μM) for four days. MTT assays were performed and IC50 values for PCNA-I1 and cisplatin were determined.
On the technique in general: Tetrazolium dyes change colour on reduction, which living cells bring about.

SMILES strings stand for the structures. pIC50: −log10 of the molar value. Entries after “also recorded” stand apart in the source; their conditions may differ.

T1 sequence (P12004 whole entry): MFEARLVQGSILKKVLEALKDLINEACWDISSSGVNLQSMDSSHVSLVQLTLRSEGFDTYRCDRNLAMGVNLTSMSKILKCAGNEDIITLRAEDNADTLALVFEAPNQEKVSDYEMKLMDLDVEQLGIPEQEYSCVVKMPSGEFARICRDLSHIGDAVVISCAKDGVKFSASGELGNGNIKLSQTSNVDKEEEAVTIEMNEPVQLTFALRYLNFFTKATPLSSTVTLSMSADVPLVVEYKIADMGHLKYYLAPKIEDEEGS

As to `Cc1ccsc1C(=O)N/N=C/c1ccc2ccccc2c1O` [PCNA-I1], the “PCNA in NP-E fraction (free-form PCNA), time course” value at PCNA (PC-3, 0.5 μM, FIG. 10(A)) is listed as “not significantly altered in cells treated by PCNA-I1 for up to 8 H but reduced in cells treated for 16 H”. Besides, the “PCNA in NP-R fraction (chromatin-associated PCNA), time course” value on PCNA (PC-3, 0.5 μM, FIG. 10(A)) was “reduced in 1 to 2 H”. For the same compound, the “Chromatin-associated and free form PCNA, concentration dependence” value on PCNA (PC-3, FIG. 10(B)) was “at concentration of 0.5 μM or lower mainly reduced the level of chromatin-associated PCNA and at concentration of 1 μM or higher led to a reduction of both the chromatin-associated and free form PCNA”. In addition, the “Susceptibility of PC-3 cells relative to lymphocytes” value in the assay on PC-3 cells [1] is given as “approximately three times more susceptible than lymphocytes”. Moreover, the pIC50 in the assay with PC-3 cells [1] (Homo sapiens, PC-3, Alamar blue assay) was 6.32; in assay [2] it was 5.70; in assay [3] (Mouse tumor cells, cell line not given, read-out: IC50 Values, cell line cell blank (second row below UV2237)) it was 7.10; in the assay on PC-3 cells [4] (PC-3, 96 h, MTT, four days, single agent, read-out: IC50 doses for cell growth inhibition, PC-3, agent alone) it was 6.62; in the assay on PC-3 cells [4] (PC-3, combined with 0.3 μM cisplatin, read-out: PCNA-I1 concentration giving 50% inhibition in combination, PC-3) it was 7.10. The “Sensitivity of multidrug resistant CT26R100 and CT26-R500 cells relative to parental CT26 cells” value in assay [3] (cells overexpress P-glycoprotein, MDR phenotype) is listed as “even more sensitive to PCNA-I1 than the parental CT26 cells; also recorded: as susceptible as the parental CT-26 cells”.

These data come from patent US9895363B2, “Methods for modulating function of proliferating cell nuclear antigen (PCNA) and treating cancer with PCNA-targeting compounds” (University of Cincinnati, priority 2010, dated 2018).
